From patent publication US20040259926A1, “3-Aryloxy and 3-heteroaryloxy substituted benzo[b]thiophenes as therapeutic agents” (priority 2003, published 2004) come the findings set out here.

pIC50: −log10 of the molar value.

The target in this assay is T1, PI3Kγ (recombinant p101/p110γ protein) (Homo sapiens, UniProt P48736).
T1 construct: HA; made in house; host or cells: Spodoptera frugiperda (Sf9) cells, baculovirus co-infection
T1 sequence (P48736 whole entry, species assumed): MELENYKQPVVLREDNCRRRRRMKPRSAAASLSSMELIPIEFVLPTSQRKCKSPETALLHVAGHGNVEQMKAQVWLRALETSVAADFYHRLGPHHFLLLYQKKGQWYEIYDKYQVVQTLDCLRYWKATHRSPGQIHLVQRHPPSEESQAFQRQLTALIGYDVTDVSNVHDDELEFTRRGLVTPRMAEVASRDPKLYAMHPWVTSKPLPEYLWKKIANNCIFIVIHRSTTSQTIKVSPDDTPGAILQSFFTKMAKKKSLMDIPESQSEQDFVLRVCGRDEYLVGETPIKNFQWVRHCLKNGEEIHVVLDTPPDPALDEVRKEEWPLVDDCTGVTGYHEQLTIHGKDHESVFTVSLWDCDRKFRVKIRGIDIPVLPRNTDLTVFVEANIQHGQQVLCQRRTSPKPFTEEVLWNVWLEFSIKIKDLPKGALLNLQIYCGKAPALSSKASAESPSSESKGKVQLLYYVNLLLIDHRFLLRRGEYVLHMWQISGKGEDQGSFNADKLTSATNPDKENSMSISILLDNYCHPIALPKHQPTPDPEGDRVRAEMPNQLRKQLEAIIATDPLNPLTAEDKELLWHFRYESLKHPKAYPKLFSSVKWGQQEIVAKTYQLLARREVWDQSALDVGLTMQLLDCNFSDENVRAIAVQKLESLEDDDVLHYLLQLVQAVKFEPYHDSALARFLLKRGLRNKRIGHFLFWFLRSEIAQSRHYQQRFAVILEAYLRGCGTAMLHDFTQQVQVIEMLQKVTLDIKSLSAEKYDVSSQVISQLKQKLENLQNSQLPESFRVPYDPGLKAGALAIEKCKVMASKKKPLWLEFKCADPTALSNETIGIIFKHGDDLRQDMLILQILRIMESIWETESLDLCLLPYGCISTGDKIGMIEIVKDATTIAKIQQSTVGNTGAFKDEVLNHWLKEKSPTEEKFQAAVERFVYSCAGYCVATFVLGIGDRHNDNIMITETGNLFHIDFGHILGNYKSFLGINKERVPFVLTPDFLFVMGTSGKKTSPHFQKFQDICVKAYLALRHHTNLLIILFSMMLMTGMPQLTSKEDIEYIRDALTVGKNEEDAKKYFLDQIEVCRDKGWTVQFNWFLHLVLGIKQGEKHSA
T1 sequence (Q8WYR1 whole entry partner, species assumed): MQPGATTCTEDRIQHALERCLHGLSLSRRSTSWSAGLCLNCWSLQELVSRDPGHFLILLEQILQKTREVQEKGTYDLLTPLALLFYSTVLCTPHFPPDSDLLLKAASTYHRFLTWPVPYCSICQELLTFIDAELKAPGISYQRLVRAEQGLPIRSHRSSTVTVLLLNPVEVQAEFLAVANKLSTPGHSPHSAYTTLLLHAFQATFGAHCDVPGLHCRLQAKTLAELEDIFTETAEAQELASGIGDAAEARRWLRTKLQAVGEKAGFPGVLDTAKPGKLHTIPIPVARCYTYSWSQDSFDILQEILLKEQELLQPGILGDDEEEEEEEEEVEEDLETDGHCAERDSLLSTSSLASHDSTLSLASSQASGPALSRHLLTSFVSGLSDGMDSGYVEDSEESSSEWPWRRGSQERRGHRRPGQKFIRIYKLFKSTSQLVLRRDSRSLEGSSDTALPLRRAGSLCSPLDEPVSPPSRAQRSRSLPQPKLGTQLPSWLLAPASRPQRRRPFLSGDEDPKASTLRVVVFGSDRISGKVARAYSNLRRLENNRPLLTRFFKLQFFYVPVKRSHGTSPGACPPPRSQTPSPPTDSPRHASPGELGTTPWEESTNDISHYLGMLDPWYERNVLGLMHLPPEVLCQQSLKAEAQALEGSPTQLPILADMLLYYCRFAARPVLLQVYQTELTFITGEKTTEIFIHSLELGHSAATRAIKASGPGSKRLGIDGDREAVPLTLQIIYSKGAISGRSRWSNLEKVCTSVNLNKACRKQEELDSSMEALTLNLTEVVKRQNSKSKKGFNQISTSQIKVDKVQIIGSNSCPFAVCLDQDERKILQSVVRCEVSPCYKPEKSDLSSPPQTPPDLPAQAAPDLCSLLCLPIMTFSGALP
The assay can be described thus: PI3Kγ In Vitro Kinase Assay. Format: biochemical. The following applies: purified recombinant p101/p110γ with G protein β1/γ2 subunits; 20 μM ATP, [γ-32P-ATP]; 25 μM PIP2 lipid micelles; 20 minutes at room temperature. The procedure:
Spodtera frugiperda cells, grown in ESF921 media, were coinfected with baculovirus expressing a glu-tagged […] and baculovirus expressing an HA-tagged p110γ, at a 3:1 ratio of p101 baculovirus to p110γ baculovirus. Sf9 cells were grown to 1×10^7 total cells/mL in 10 L bioreactors and harvested 48-72 hours post infection. Samples of infected cells were then tested for expression of p101/p110γ PI3 kinase by immunoprecipitation and Western Blot analysis methods (see below).
To purify PI3Kγ, 4 volumes of room temperature hypotonic lysis buffer (1 mM MgCl2, 1 mM DTT, 5 mM EGTA, 1 mM Pefabloc, 0.5 μM aprotinin, 5 μM leupeptin, 2 μM pepstatin, 5 μM E64, pH 8) per gram of cell paste, was poured onto frozen cell pellets with stirring, then lysed in a nitrogen “bomb” at 400 psi (599 HC T316, Parr Instrument Co, Moline, Ill.). NaCl was added to 150 mM, and sodium cholate was added to 1% and mixed for another 45 minutes. The lysates were clarified by centrifugation for 25 minutes at 14,000 rpm. The lysates were then loaded over anti-glu-linked Protein-G Sepaharose beads (Covance Research Products, Richmond, Calif.) using 20 mL resin/50 g cell paste. The column was washed with 15 volumes of wash buffer (1 mM DTT, 0.2 mM EGTA, 1 mM Pefabloc, 0.5 μM aprotinin, 5 μM leupeptin, 2 μM pepstatin, 5 μM E64, 150 mM NaCl, 1% sodium cholate, pH 8). PI3Kγ was eluted with 6 column volumes of wash buffer that contain 100 μg/mL of a peptide that competes for binding of the glu tag. The column fractions with the eluted protein (determined by taking OD280 readings) were collected and dialyzed in 0.2 mM EGTA, 1 mM DTT, 1 mM Pefabloc, 5 μM leupeptin, 0.5% sodium cholate, 150 mM NaCl, and 50% glycerol, pH 8. The fractions were stored at −80° C. until further use.
Spodtera frugiperda cells were coinfected with baculovirus expressing a glu-tagged G protein β1 and baculovirus expressing a G protein β2 at a 1:1 ratio of glu-tagged G protein β1 baculovirus to G protein β2 baculovirus. Sf9 cells are grown in 10 L bioreactors and harvested 48-72 hours post infection. Samples of infected cells were tested for G protein β1/β2 expression by Western Blot analysis, as described below. Cell lysates were homogenized and loaded onto a column of glu-tagged beads as in Biological Example 1 and competed off the column with a glu peptide and processed as described in Biological Example 1.
The inhibitory properties of the compounds in Table 1 were assayed in an in vitro PI3K assay. In a 96-well polypropylene plate, each well was spotted with 2 μL of 50 times the desired final concentration of compound in DMSO. Purified recombinant p101/p110γ protein (0.03 μg; ˜2.7 nM) and G protein β1/γ2 subunits (0.09 μg; ˜57.7 nM) for each reaction was combined in the assay buffer (30 mM HEPES, 100 mM NaCl, 1 mM EGTA, and 1 mM DTT). ATP and [γ-^32P-ATP] (0.09 μCi) were added to this mixture so that the final ATP concentration in the reaction was 20 μM. Lipid micelles were formed by sonicating phosphatidylinositol-4,5-diphosphate (PIP2), phosphatidylethanolamine (PE), and Na-cholate in the assay buffer for 10 minutes, adding MgCl2 and incubating on ice for 20 minutes, for final concentrations of 25 μM PIP2, 300 μM PE, 0.02% Na-cholate, and 10 mM MgCl2 in the reaction. The reactions were started by adding equal volumes lipid and enzyme mixture in a total volume of 50 μL, allowed to run for 20 minutes at room temperature, and stopped with 100 μL 75 mM H3PO4. The lipid product was transferred to a glass fiber filter plate and washed with 75 mM H3PO4 several times. The presence of radioactive lipid product (PIP3) was measured by adding Wallac Optiphase mix to each well and counting in a Wallac 1450 Trilux plate reader (PerkinElmer Life Sciences Inc., Boston, Mass. 02118). The IC50 for each compound tested is reported in μM in Table 1: […]
Take `CCOC(=O)Cc1ccc(Oc2c(C(=O)Nc3nn[nH]n3)sc3cc(C)c(OC)cc23)cc1` [Example B.6, {4-[5-Methoxy-6-methyl-2-(2H-tetrazol-5-ylcarbamoyl)-benzo[b]thiophene-3-yloxy]-phenyl}-acetic acid ethyl ester]: the pIC50 is 7.92.
Take `COc1cc2c(Oc3ccc(CC(=O)N4CCCCC4)cc3)c(C(=O)Nc3nn[nH]n3)sc2cc1C` [Example B.7, 5-Methoxy-6-methyl-3-[4-(2-oxo-2-piperidin-1-yl-ethyl)-phenoxy]-benzo[b]thiophene-2-carboxylic acid (2H-tetrazol-5-yl)-amide]: the pIC50 is 7.55.
Then `COc1cc2c(Oc3ccc(CCC(=O)N4CCCCC4)cc3)c(C(=O)Nc3nn[nH]n3)sc2cc1C` [Example B.8, 5-Methoxy-6-methyl-3-[4-(3-oxo-3-piperidin-1-yl-propyl)-phenoxy]-benzo[b]thiophene-2-carboxylic acid (2H-tetrazol-5-yl)-amide], with 7.48.
Turning to `COc1cc2c(Oc3cccc(C4CCCCC4)c3)c(C(=O)Nc3nn[nH]n3)sc2cc1C` [Example B.9, 3-(3-Cyclohexyl-phenoxy)-5-methoxy-6-methyl-benzo[b]thiophene-2-carboxylic acid (2H-tetrazol-5-yl)-amide], the pIC50 was 7.20.
Take `COc1cc2c(Oc3ccc(CCBr)cc3)c(C(=O)Nc3nn[nH]n3)sc2cc1C` [Example B.10, 3-[4-(2-Bromo-ethyl)-phenoxy]-5-methoxy-6-methyl-benzo[b]thiophene-2-carboxylic acid (2H-tetrazol-5-yl)-amide]: the pIC50 was 7.82.
The value for `COc1cc2c(Oc3ccc4c(c3)CCCC4)c(C(=O)Nc3nn[nH]n3)sc2cc1C` [Example B.11, 5-Methoxy-6-methyl-3-(5,6,7,8-tetrahydro-naphthalen-2yloxy)-benzo[b]thiophene-2-carboxylic acid (2H-tetrazol-5-yl)-amide] was 7.07; that for `COc1cc2c(Oc3ccc(C(C)C)cc3)c(C(=O)Nc3nn[nH]n3)sc2cc1C` [Example B.12, 3-(4-Isopropyl-phenoxy)-5-methoxy-6-methyl-benzo[b]thiophene-2-carboxylic acid (2H-tetrazol-5-yl)-amide] was 7.77.
Then `CCCCc1ccc(Oc2c(C(=O)Nc3nn[nH]n3)sc3cc(C)c(OC)cc23)cc1` [Example B.13, 3-(4-Butyl-phenoxy)-5-methoxy-6-methyl-benzo[b]thiophene-2-carboxylic acid (2H-tetrazol-5-yl)-amide], with 7.51; and `CCCCCCOc1ccc(Oc2c(C(=O)Nc3nn[nH]n3)sc3cc(C)c(OC)cc23)cc1` [Example B.14, 3-(4-Hexyloxy-phenoxy)-5-methoxy-6-methyl-benzo[b]thiophene-2-carboxylic acid (2H-tetrazol-5-yl)-amide], with 6.44.
On to `COc1cc2c(Oc3ccc(OCc4ccccc4)cc3)c(C(=O)Nc3nn[nH]n3)sc2cc1C` [Example B.15, 3-(4-Benzyloxy-phenoxy)-5-methoxy-6-methyl-benzo[b]thiophene-2-carboxylic acid (2H-tetrazol-5-yl)-amide], for which the pIC50 is 7.12.
Then `COc1cc2c(Oc3ccc(OCC4CCCCC4)cc3)c(C(=O)Nc3nn[nH]n3)sc2cc1C` [Example B.16, 3-(4-Cyclohexylmethoxy-phenoxy)-5-methoxy-6-methyl-benzo[b]thiophene-2-carboxylic acid (2H-tetrazol-5-yl)-amide], with 6.90; and `COc1cc2c(Oc3ccc(OC4CCCC4)cc3)c(C(=O)Nc3nn[nH]n3)sc2cc1C` [Example B.17, 3-(4-Cyclopentyloxy-phenoxy)-5-methoxy-6-methyl-benzo[b]thiophene-2-carboxylic acid (2H-tetrazol-5-yl)-amide], with 8.40.
In the case of `COc1cc2c(Oc3cccc(C(C)(C)C)c3)c(C(=O)Nc3nn[nH]n3)sc2cc1C` [Example B.18, 3-(3-tert-Butyl-phenoxy)-5-methoxy-6-methyl-benzo[b]thiophene-2-carboxylic acid (2H-tetrazol-5-yl)-amide], the pIC50 was 7.54.
As to `COc1cc2c(Oc3ccc(C(C)(C)C)cc3)c(C(=O)Nc3nn[nH]n3)sc2cc1C` [Example B.19, 3-(4-tert-Butyl-phenoxy)-5-methoxy-6-methyl-benzo[b]thiophene-2-carboxylic acid (2H-tetrazol-5-yl)-amide], the pIC50 was 8.05.
For the compound `COc1cc2c(Oc3ccc(-c4ccccc4)cc3)c(C(=O)Nc3nn[nH]n3)sc2cc1C` [Example B.20, 3-(Biphenyl-4-yloxy)-5-methoxy-6-methyl-benzo[b]thiophene-2-carboxylic acid (2H-tetrazol-5-yl)-amide], the pIC50 was 7.11.
As for `COc1cc2c(Oc3ccc(OC4CCCCCC4)cc3)c(C(=O)Nc3nn[nH]n3)sc2cc1C` [Example B.21, 3-(4-Cycloheptyloxy-phenoxy)-5-methoxy-6-methyl-benzo[b]thiophene-2-carboxylic acid (2H-tetrazol-5-yl)-amide], the negative-log IC50 (pIC50) is 7.37.
Then `COc1cc2c(Oc3ccc(OC4CCCCC4)cc3)c(C(=O)Nc3nn[nH]n3)sc2cc1C` [Example B.22, 3-(4-Cyclohexyloxy-phenoxy)-5-methoxy-6-methyl-benzo[b]thiophene-2-carboxylic acid (2H-tetrazol-5-yl)-amide], with 7.74; and `COc1cc2c(Oc3ccc(Oc4ccccc4)cc3)c(C(=O)Nc3nn[nH]n3)sc2cc1C` [Example B.24, 5-Methoxy-6-methyl-3-(4-phenoxy-phenoxy)-benzo[b]thiophene-2-carboxylic acid (2H-tetrazol-5-yl)-amide], with 8.10.
The value for `COc1cc2c(Oc3ccc(CCSC(C)(C)C)cc3)c(C(=O)Nc3nn[nH]n3)sc2cc1C` [Example B.25, 3-[4-(2-tert-Butylsulfanyl-ethyl)-phenoxy)-5-methoxy-6-methyl-benzo[b]thiophene-2-carboxylic acid (2H-tetrazol-5-yl)-amide] was 7.60; that for `COc1cc2c(Oc3ccc(C4(C)CCCCC4)cc3)c(C(=O)Nc3nn[nH]n3)sc2cc1C` [Example B.26, 5-Methoxy-6-methyl-3-[4-(1-methyl-cyclohexyl)-phenoxy]-benzo[b]thiophene-2-carboxylic acid (2H-tetrazol-5-yl)-amide] was 7.17; that for `COc1cc2c(Oc3ccc(C4(C)CCC(C)CC4)cc3)c(C(=O)Nc3nn[nH]n3)sc2cc1C` (centres unmarked) [Example B.27, 3-[4-(1,4-Dimethyl-cyclohexyl)-phenoxy]-5-methoxy-6-methyl-benzo[b]thiophene-2-carboxylic acid (2H-tetrazol-5-yl)-amide] was 6.90.
For `COc1cc2c(Oc3ccc(C4CCCCC4)cc3C)c(C(=O)Nc3nn[nH]n3)sc2cc1C` [Example B.28, 3-(4-Cyclohexyl-2-methyl-phenoxy)-5-methoxy-6-methyl-benzo[b]thiophene-2-carboxylic acid (2H-tetrazol-5-yl)-amide], the pIC50 was 7.21.
On to `COc1cc2c(Oc3ccc(C4CCCCC4)c(C)c3)c(C(=O)Nc3nn[nH]n3)sc2cc1C` [Example B.29, 3-(4-Cyclohexyl-3-methyl-phenoxy)-5-methoxy-6-methyl-benzo[b]thiophene-2-carboxylic acid (2H-tetrazol-5-yl)-amide], for which the pIC50 is 6.56.

As usually defined, the pIC50 is the IC50 on a negative log10 scale, so that one unit is a factor of ten.
